In BindingDB's records for doi:10.1016/j.bmcl.2011.10.035 (Sepuluh Nopember Institute of Technology, 2011):

These compounds were tested against Aldo-keto reductase family 1 member B1 (Homo sapiens, UniProt P15121) (assay: Inhibition of recombinant human aldose reductase using dl-glyceraldehyde as substrate after 10 mins by spectrophotometry).

SMILES	IC50
CC(CC(=O)C[C@@H](C)[C@H]1CC(=O)[C@@]2(C)C3C(=O)C[C@H]4C(C)(C)[C@@H](O)CC[C@]4(C)C3C(=O)C(=O)[C@]12C)C(=O)O (stereo partly drawn)	> 193 µM
CC(CC(=O)C[C@@H](C)[C@H]1CC(=O)[C@@]2(C)C3C(C(=O)C(=O)[C@]12C)[C@@]1(C)CC[C@H](O)C(C)(C)[C@@H]1C[C@@H]3O)C(=O)O (stereo partly drawn)	> 188 µM
CC(=CC(=O)CC(C)C(=O)O)[C@H]1CC(=O)[C@@]2(C)C3=C(C(=O)C[C@]12C)[C@@]1(C)CCC(=O)C(C)(C)[C@@H]1C[C@@H]3O (stereo partly drawn)	> 195 µM
